Test results taken from the supplement of paper PMC10307832.

Tests used:
Experiment in all cases: relative viability (nuclei count vs DMSO), 5 days (fraction); higher = more cells survive
[1] = compound: CC1=C(C(=NN1)C)CC2=C(C3=C(S2)N(C(=O)N(C3=O)C)CC(C)C)C(=O)N4C[C@@H](CO4)O + C[C@@H](Oc1cc(-c2cnn(C3CCNCC3)c2)cnc1N)c1c(Cl)ccc(F)c1Cl [Crizotinib] (partner 1 µM)
In short: (§1)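 Values are medians from duplicate plates. Each reflects relative viability, defined as the nuclei count of treated wells over that of vehicle wells. Lung cancer cell lines in 1536-well plates were pin-tool dosed one day after seeding with one drug alone or with a fixed anchor-drug dose plus five library-drug doses (not always all listed) in √10 steps, then fixed, stained and imaged at 4× after 5 days.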

[2] = compound: CC1=C(C(=NN1)C)CC2=C(C3=C(S2)N(C(=O)N(C3=O)C)CC(C)C)C(=O)N4C[C@@H](CO4)O + CCNC(=O)c1noc(-c2cc(C(C)C)c(O)cc2O)c1-c1ccc(CN2CCOCC2)cc1 [Luminespib] (partner 0.01 µM)
In short: as §1

IDH-C35 + OSI-027 = compound: Cc1ccccc1C(C(=O)NC1CCCCC1)N(C(=O)Cn1ccnc1C)c1cccc(F)c1 [IDH-C35] + COc1cccc2cc(-c3nc([C@H]4CC[C@H](C(=O)O)CC4)n4ncnc(N)c34)[nH]c12 [OSI-027] (partner 0.5 µM)
In short: as §1

[3] = compound: CC1=C(C(=NN1)C)CC2=C(C3=C(S2)N(C(=O)N(C3=O)C)CC(C)C)C(=O)N4C[C@@H](CO4)O + Nc1nc2[nH]cc(CCc3ccc(C(=O)N[C@@H](CCC(=O)O)C(=O)O)cc3)c2c(=O)[nH]1 [Pemetrexed] (partner 0.2 µM)
In short: as §1

## NCI-H1993
[1]; first compound 0.0025 µM
  relative viability: 1.07
[1]; first compound 0.007906 µM
  relative viability: 0.901
[1]; first compound 0.025 µM
  relative viability: 0.965
[1]; first compound 0.07906 µM
  relative viability: 0.853
[1]; first compound 0.25 µM
  relative viability: 0.932
[2]; first compound 0.0025 µM
  relative viability: 0.727
[2]; first compound 0.007906 µM
  relative viability: 0.706
[2]; first compound 0.025 µM
  relative viability: 0.765
[2]; first compound 0.07906 µM
  relative viability: 0.65
[2]; first compound 0.25 µM
  relative viability: 0.749
IDH-C35 + OSI-027; first compound 0.08 µM
  relative viability: 0.522
IDH-C35 + OSI-027; first compound 0.253 µM
  relative viability: 0.532
IDH-C35 + OSI-027; first compound 0.8 µM
  relative viability: 0.57
IDH-C35 + OSI-027; first compound 2.53 µM
  relative viability: 0.505
IDH-C35 + OSI-027; first compound 8 µM
  relative viability: 0.555
[3]; first compound 0.0025 µM
  relative viability: 0.651
[3]; first compound 0.007906 µM
  relative viability: 0.623
[3]; first compound 0.025 µM
  relative viability: 0.609
[3]; first compound 0.07906 µM
  relative viability: 0.607
[3]; first compound 0.25 µM
  relative viability: 0.639

## NCI-H2009
[1]; first compound 0.0025 µM
  relative viability: 0.966
[1]; first compound 0.007906 µM
  relative viability: 1.03
[1]; first compound 0.025 µM
  relative viability: 1.06
[1]; first compound 0.07906 µM
  relative viability: 1.09
[1]; first compound 0.25 µM
  relative viability: 1.11
[2]; first compound 0.0025 µM
  relative viability: 1.07
[2]; first compound 0.007906 µM
  relative viability: 1.06
[2]; first compound 0.025 µM
  relative viability: 1.06
[2]; first compound 0.07906 µM
  relative viability: 1.13
[2]; first compound 0.25 µM
  relative viability: 1.02
IDH-C35 + OSI-027; first compound 0.08 µM
  relative viability: 0.654
IDH-C35 + OSI-027; first compound 0.253 µM
  relative viability: 0.643
IDH-C35 + OSI-027; first compound 0.8 µM
  relative viability: 0.685
IDH-C35 + OSI-027; first compound 2.53 µM
  relative viability: 0.668
IDH-C35 + OSI-027; first compound 8 µM
  relative viability: 0.569
[3]; first compound 0.0025 µM
  relative viability: 1.09
[3]; first compound 0.007906 µM
  relative viability: 1.03
[3]; first compound 0.025 µM
  relative viability: 0.955
[3]; first compound 0.07906 µM
  relative viability: 1.03
[3]; first compound 0.25 µM
  relative viability: 1.06

## NCI-H2023
[1]; first compound 0.0025 µM
  relative viability: 0.76
[1]; first compound 0.007906 µM
  relative viability: 0.731
[1]; first compound 0.025 µM
  relative viability: 0.705
[1]; first compound 0.07906 µM
  relative viability: 0.691
[1]; first compound 0.25 µM
  relative viability: 0.659
[2]; first compound 0.0025 µM
  relative viability: 0.868
[2]; first compound 0.007906 µM
  relative viability: 0.945
[2]; first compound 0.025 µM
  relative viability: 0.725
[2]; first compound 0.07906 µM
  relative viability: 0.603
[2]; first compound 0.25 µM
  relative viability: 0.737
IDH-C35 + OSI-027; first compound 0.08 µM
  relative viability: 0.418
IDH-C35 + OSI-027; first compound 0.253 µM
  relative viability: 0.417
IDH-C35 + OSI-027; first compound 0.8 µM
  relative viability: 0.426
IDH-C35 + OSI-027; first compound 2.53 µM
  relative viability: 0.411
IDH-C35 + OSI-027; first compound 8 µM
  relative viability: 0.307
[3]; first compound 0.0025 µM
  relative viability: 0.249
[3]; first compound 0.007906 µM
  relative viability: 0.258
[3]; first compound 0.025 µM
  relative viability: 0.224
[3]; first compound 0.07906 µM
  relative viability: 0.233
[3]; first compound 0.25 µM
  relative viability: 0.225

## NCI-H2085
[1]; first compound 0.0025 µM
  relative viability: 0.923
[1]; first compound 0.007906 µM
  relative viability: 0.726
[1]; first compound 0.025 µM
  relative viability: 0.8
[1]; first compound 0.07906 µM
  relative viability: 0.89
[1]; first compound 0.25 µM
  relative viability: 0.862
[2]; first compound 0.0025 µM
  relative viability: 0.443
[2]; first compound 0.007906 µM
  relative viability: 0.412
[2]; first compound 0.025 µM
  relative viability: 0.412
[2]; first compound 0.07906 µM
  relative viability: 0.41
[2]; first compound 0.25 µM
  relative viability: 0.343
IDH-C35 + OSI-027; first compound 0.08 µM
  relative viability: 0.772
IDH-C35 + OSI-027; first compound 0.253 µM
  relative viability: 0.929
IDH-C35 + OSI-027; first compound 0.8 µM
  relative viability: 0.722
IDH-C35 + OSI-027; first compound 2.53 µM
  relative viability: 0.741
IDH-C35 + OSI-027; first compound 8 µM
  relative viability: 0.638
[3]; first compound 0.0025 µM
  relative viability: 0.926
[3]; first compound 0.007906 µM
  relative viability: 0.93
[3]; first compound 0.025 µM
  relative viability: 0.73
[3]; first compound 0.07906 µM
  relative viability: 0.987
[3]; first compound 0.25 µM
  relative viability: 0.476

## NCI-H2087
[1]; first compound 0.0025 µM
  relative viability: 0.822
[1]; first compound 0.007906 µM
  relative viability: 0.804
[1]; first compound 0.025 µM
  relative viability: 0.927
[1]; first compound 0.07906 µM
  relative viability: 0.923
[1]; first compound 0.25 µM
  relative viability: 0.937
[2]; first compound 0.0025 µM
  relative viability: 0.142
[2]; first compound 0.007906 µM
  relative viability: 0.217
[2]; first compound 0.025 µM
  relative viability: 0.175
[2]; first compound 0.07906 µM
  relative viability: 0.168
[2]; first compound 0.25 µM
  relative viability: 0.16
IDH-C35 + OSI-027; first compound 0.08 µM
  relative viability: 0.59
IDH-C35 + OSI-027; first compound 0.253 µM
  relative viability: 0.518
IDH-C35 + OSI-027; first compound 0.8 µM
  relative viability: 0.537
IDH-C35 + OSI-027; first compound 8 µM
  relative viability: 0.532
[3]; first compound 0.0025 µM
  relative viability: 0.575
[3]; first compound 0.007906 µM
  relative viability: 0.675
[3]; first compound 0.025 µM
  relative viability: 0.629
[3]; first compound 0.07906 µM
  relative viability: 0.587
[3]; first compound 0.25 µM
  relative viability: 0.695

## NCI-H2126
[1]; first compound 0.0025 µM
  relative viability: 1.05
[1]; first compound 0.007906 µM
  relative viability: 1.02
[1]; first compound 0.025 µM
  relative viability: 1.01
[1]; first compound 0.07906 µM
  relative viability: 1
[1]; first compound 0.25 µM
  relative viability: 1.02
[2]; first compound 0.0025 µM
  relative viability: 0.959
[2]; first compound 0.007906 µM
  relative viability: 0.845
[2]; first compound 0.025 µM
  relative viability: 0.878
[2]; first compound 0.07906 µM
  relative viability: 0.892
[2]; first compound 0.25 µM
  relative viability: 0.951
IDH-C35 + OSI-027; first compound 0.08 µM
  relative viability: 0.767
IDH-C35 + OSI-027; first compound 0.253 µM
  relative viability: 0.731
IDH-C35 + OSI-027; first compound 0.8 µM
  relative viability: 0.68
IDH-C35 + OSI-027; first compound 2.53 µM
  relative viability: 0.651
IDH-C35 + OSI-027; first compound 8 µM
  relative viability: 0.677
[3]; first compound 0.0025 µM
  relative viability: 0.766
[3]; first compound 0.007906 µM
  relative viability: 0.737
[3]; first compound 0.025 µM
  relative viability: 0.63
[3]; first compound 0.07906 µM
  relative viability: 0.6
[3]; first compound 0.25 µM
  relative viability: 0.739

## NCI-H2170
[1]; first compound 0.0025 µM
  relative viability: 1.19
[1]; first compound 0.007906 µM
  relative viability: 1.37
[1]; first compound 0.025 µM
  relative viability: 1.24
[1]; first compound 0.07906 µM
  relative viability: 1.13
[1]; first compound 0.25 µM
  relative viability: 1.26
[2]; first compound 0.0025 µM
  relative viability: 0.607
[2]; first compound 0.007906 µM
  relative viability: 0.79
[2]; first compound 0.025 µM
  relative viability: 0.753
[2]; first compound 0.07906 µM
  relative viability: 0.725
[2]; first compound 0.25 µM
  relative viability: 0.793
IDH-C35 + OSI-027; first compound 0.08 µM
  relative viability: 0.669
IDH-C35 + OSI-027; first compound 0.253 µM
  relative viability: 0.661
IDH-C35 + OSI-027; first compound 0.8 µM
  relative viability: 0.739
IDH-C35 + OSI-027; first compound 2.53 µM
  relative viability: 0.71
IDH-C35 + OSI-027; first compound 8 µM
  relative viability: 0.676
[3]; first compound 0.0025 µM
  relative viability: 0.261
[3]; first compound 0.007906 µM
  relative viability: 0.274
[3]; first compound 0.025 µM
  relative viability: 0.252
[3]; first compound 0.07906 µM
  relative viability: 0.248
[3]; first compound 0.25 µM
  relative viability: 0.266

## NCI-H2228
[1]; first compound 0.0025 µM
  relative viability: 0.421
[1]; first compound 0.007906 µM
  relative viability: 0.523
[1]; first compound 0.025 µM
  relative viability: 0.473
[1]; first compound 0.07906 µM
  relative viability: 0.505
[1]; first compound 0.25 µM
  relative viability: 0.469
[2]; first compound 0.0025 µM
  relative viability: 0.145
[2]; first compound 0.007906 µM
  relative viability: 0.161
[2]; first compound 0.025 µM
  relative viability: 0.207
[2]; first compound 0.07906 µM
  relative viability: 0.111
[2]; first compound 0.25 µM
  relative viability: 0.144
IDH-C35 + OSI-027; first compound 0.08 µM
  relative viability: 0.729
IDH-C35 + OSI-027; first compound 0.253 µM
  relative viability: 0.687
IDH-C35 + OSI-027; first compound 0.8 µM
  relative viability: 0.55
IDH-C35 + OSI-027; first compound 2.53 µM
  relative viability: 0.586
IDH-C35 + OSI-027; first compound 8 µM
  relative viability: 0.535
[3]; first compound 0.0025 µM
  relative viability: 0.317
[3]; first compound 0.007906 µM
  relative viability: 0.342
[3]; first compound 0.025 µM
  relative viability: 0.339
[3]; first compound 0.07906 µM
  relative viability: 0.322
[3]; first compound 0.25 µM
  relative viability: 0.324
